# From US5470877A, “Uses of perillic acid methyl ester” (Wisconsin Alumni Research Foundation, priority 1994, dated 1995)
# Where “and” joins values, the source holds several entries; their conditions need not be identical. Equal values may be shown once.
# Tests used:
# HT29 cells = assay: Inhibition of HT29 colon adenocarcinoma cell growth/proliferation; assay type: cell-based, human; settings: for Rank order, inhibition of HT-29 tumor cell proliferation: 1 = greatest inhibition, 5 = least inhibition
# Method: (§1) We examined the effect of several of the terpenes on certain types of cell growth. […] Additionally, growth of HT29 (human colon adenocarcinoma) cells was inhibited by 80% by 1 mM perillyl alcohol.
# 21-26 kDa proteins [1] = assay: Protein isoprenylation inhibition in NIH3T3 cells (SDS-PAGE fluorography); assay type: cell-based, mouse; settings: for isoprenylation of the 21-26-kDa bands, % of the control: NIH3T3, gel slicing and scintillation counting
# Method: "Isoprenylation" is the addition of a multiple of the 5 carbon isoprene unit to a protein. Our experiments in isoprenylation are reported at Crowell, et al. 1991, J. Biol. Chem. 266:17679-17685. To test whether a specific monoterpene affects isoprenylation of proteins in cells, […] were incubated with a radioactive isoprene precursor and 0-5 mM of the test monoterpene and then subjected to SDS-PAGE. Because they carried a radioactive label, isoprenylated proteins were visualized by fluorography. As a control, cells were incubated without the monoterpene.
# Cells were harvested after trypsin treatment, washed twice with phosphate-buffered saline, suspended in electrophoresis sample buffer (Laemmli, U.K., 1970, Nature 227:680-685), and either analyzed immediately or stored at -20° C. Whole cell extracts were analyzed by SDS-PAGE on 16-cm×18-cm×0.75-mm gels by the method of Laemmli (supra). The acrylamide concentrations were 5% for the stacking gel and 12% for the separating gel. Gels were stained with Coomassie Brilliant Blue, equilibrated for 20 min in Amplify (Amersham Corp.) fluorographic reagent, dried under vacuum at 65° C., and exposed to preflashed Kodak X-Omat AR film as described by Laskey and Mills (1975, Eur. J. Biochem, 56:335-341). Some fluorograms were analyzed further by densitometry. Where indicated, gels were sliced, dissolved at 50° C. for 3 hours in 0.5 ml of water+0.5 ml of Solvable (Amersham), and then analyzed by scintillation spectrometry in 10 ml of Atom light (Amersham) mixture. Protein content was measured by the method of Lowry, et al. (1951, J. Biol. Chem. 193:265-275).
# FIG. 1 depicts the structures of certain monoterpenes.
# The degree of isoprenylation was evaluated by the amount of labeled protein present in the 21-26 kDa range, as evidenced by fluorography.
# [2] = tested on: DMBA-induced rat mammary carcinomas; assay: Regression of DMBA-induced mammary carcinomas, pair-feeding study; assay type: in vivo, Wistar-Furth rat
# Method: We used Wistar-Furth female rats for in vivo studies. Wistar-Furth female rats were obtained from Harlan Sprague-Dawley, Inc., (Madison, Wis.). All rats, arriving at 43-48 days of age, were housed at four rats per cage in wire-bottom metal cages and all were maintained with a light/dark cycle of 12 hours. Rats were provided Teklad Lab blox chow and acidified water ad libitum.
# After one week of acclimation, the carcinogen DMBA was administered to the rats, which were 50-55 days old at this point. The DMBA was dissolved in a stock solution of 20 mg DMBA/ml sesame oil, heated and allowed to cool to room temperature before administration. DMBA (Eastman Kodak, Rochester, N.Y.) was given as a single gastric intubation of 50 mg DMBA/kg rat body weight.
# In the pair-feeding study, a group of 70 mammals was treated with DMBA. Beginning four weeks post carcinogen administration, mammals were weighed and palpated weekly. Upon palpation of the first mammary carcinoma (diameter≥3 mm), mammals were randomly assigned to control or 2.5% (w/w) perillyl alcohol diet and pair-fed.
# Perillyl alcohol (>96% pure by GC analysis, Aldrich, Milwaukee, Wis.) and Teklad 4% mouse/rat diet meal were thoroughly mixed and stored at -20° C. Fresh diets were made every 7-10 days. All mammals were provided fresh diet daily to minimize evaporation of the monoterpenes. For pair-feeding, the quantity of diet consumed by the monoterpene-fed mammals was measured every 24 hours and the assigned partner was pair-fed accordingly.
# In the pair-feeding study, all palpable mammary carcinomas were classified as either "primary" tumors (i.e, the first tumor(s) palpated with a minimum diameter of 3 mm) or "secondary" tumors (i.e. a palpable tumor arising after initial diet assignment). At diet assignment, some mammals had more than one primary tumor. All carcinogen-exposed mammals not bearing a first palpable tumor by week 15 post-carcinogen were removed from the experiment. Complete regression of a tumor was defined as non-palpability for a minimum of three consecutive weeks. All mammals in the pair-feeding study were followed for a minimum of 10 weeks post-diet assignment for tumor growth or regression at primary tumor sites and all other mammary glands. The rats were necropsied if moribund. Complete necropsies were performed on all rats at the termination of the study. Greater than 95% of tumors remaining at the autopsy date were diagnosed as mammary carcinomas based on gross and histopathological criteria.
# [3] = Plasma metabolite identification and quantitation in rats; assay type: in vivo, Wistar-Furth rat; settings: rat, in vivo
# Method: Control animals received oil alone. At the chosen time points, rats were anesthetized with ether and blood was collected into heparinized tubes (Heparin (Sigma, Grade II), at 20 mg/ml in 0.9% saline). Plasma was removed following centrifugation and stored at -20° C.
# For quantitation of chronic plasma metabolite levels of perillyl alcohol, female WF rats were housed individually and fed fresh diet daily. The afternoon before blood collection, all rats were given approximately 20 grams of the appropriate diet and allowed to eat ad. libitum for 18 hours. Food consumption data was determined the next morning and the rats were bled within 2 hours following food removal.
# Briefly, 5 μl of a 10 mM solution of perillaldehyde was added to 50 μl plasma as an internal standard for quantitation. The plasma was mixed with an equal volume of n-butanol:acetonitrile (1:1, v/v), after which another volume of saturated potassium phosphate was added. After vortexing, the samples were centrifuged and the organic layer removed from the top.
# Plasma extracts were analyzed using a Hewlett-Packard 5891 gas chromatograph equipped with a flame-ionization detector or a Hewlett-Packard 5890 chromatograph equipped with a 5971A mass-selective detector, both with 30 m Supelco SPB-5 columns. The temperature program was 90° C. for 4 minutes, increasing by 10° C./minute, followed by 15 minutes at 275° C. The split ratio was 1:10 and the linear velocity was 1.1 ml/minute. Standard curves were generated by adding 5 μl rat plasma. Standards were then extracted and analyzed by capillary gas chromatography. The ratio of the terpene peak area/perillaldehyde peak area versus the concentration of terpene in the sample was plotted.
# [4] = in vivo
# Method: Subjects: The subjects were five females and two males, median age of 32 years (range 23-55) and without illness or laboratory abnormalities.
# The custard consisted of dry unflavored custard mix, cold water, cold whole milk, and orange oil. The components were blended at room temperature and then refrigerated for at least 30 minutes prior to ingestion by the subjects. Subjects ingested the orange oil-containing mixture over 2-10 minutes. […] The chemistry panel consisted of: BUN, creatinine, calcium, magnesium, phosphorous, uric acid, total cholesterol, total protein, albumin, total bilirubin, y-glutamyl transpeptidase, alkaline phosphatase, aspartate aminotransferase, and lactate dehydrogenase. Subjects were monitored for toxicity for one week.
# [5] = rat, in vivo; cited from earlier work
# [6] = in vivo; cited from earlier work
# [7] = Chemistry panel and toxicity monitoring in human subjects; settings: 100 mg/kg d-limonene
# Method: The custard consisted of dry unflavored custard mix, cold water, cold whole milk, and orange oil. The components were blended at room temperature and then refrigerated for at least 30 minutes prior to ingestion by the subjects. Subjects ingested the orange oil-containing mixture over 2-10 minutes. […] One subject had additional blood draws for metabolite analysis at 1, 2, and 8 h post-ingestion. The chemistry panel consisted of: BUN, creatinine, calcium, magnesium, phosphorous, uric acid, total cholesterol, total protein, albumin, total bilirubin, y-glutamyl transpeptidase, alkaline phosphatase, aspartate aminotransferase, and lactate dehydrogenase. Subjects were monitored for toxicity for one week.
# 21-26 kDa proteins [8] = assay: Protein isoprenylation inhibition in M600B human mammary epithelial cells
# Method: To test whether a specific monoterpene affects isoprenylation of proteins in cells, cell extracts were incubated with a radioactive isoprene precursor and 0-5 mM of the test monoterpene and then subjected to SDS-PAGE. Because they carried a radioactive label, isoprenylated proteins were visualized by fluorography. As a control, cells were incubated without the monoterpene.
# For both isoprenylation and cell growth assays, the monoterpenes were mixed with prewarmed (37° C.) medium containing 10% calf serum, and then the monoterpene-containing medium was added to cells. The relative effects of various monoterpenes on protein isoprenylation were compared by comparison of the relative intensity of bands on fluorograms from [^14 C]-mevalonate-labelled cells treated with each monoterpene.
# Samples from each cell line were then analyzed on the same gel.
# DMBA rat mammary tumor = assay: Dietary perillic acid methyl ester-induced rat mammary tumor regression; assay type: in vivo, Wistar-Furth rat; settings: 0.5% perillic acid methyl ester diet, individual rat tumors
# Method: (§2) Inbred female Wistar-Furth rats were given 50 mg/kg DMBA at 50-55 days of age. Upon development of a mammary tumor with the largest diameter≥10 mm, the rat was assigned to 0.5% perillic acid methyl ester diet and fed ad libitum. The 0.5% perillic acid methyl ester diet (weight compound/weight ground Teklad rat/mouse 4% meal/chow) was prepared fresh every 7-10 days. Fresh diet was given to rats daily. All rats were weighed and palpated weekly. The study was terminated at 6 weeks after initial diet administration.
# rat mammary carcinoma = assay: Comparison of dietary perillyl alcohol and perillic acid methyl ester as inducers of rat mammary carcinoma regression; assay type: in vivo, Wistar-Furth rat; settings: 0.5% PAME diet
# Method: as §2, with “administration. The following tumor regression data was acquired:” for “administration.”
# We compared the effects of PAME and POH in terms of their ability to regress rat mammary carcinomas. Table 8 records our comparison. In summary, a 0.5% PAME diet was effective, while a 0.5% POH diet was only 10% effective. Diets of 2% POH were roughly 64-70% effective. While 2% POH is tolerated by a mammal, on a practical level PAME is preferred because a lower dose is sufficient.
# NIH3T3 cells = assay: NIH3T3 cell growth inhibition (FIG. 3); assay type: cell-based, mouse; settings: NIH3T3 (murine) cells
# Method: (§3) NIH3T3 (mouse embryo) cells were obtained from the American Type Culture Collection and were grown in Dulbecco's modified Eagle's medium supplemented with 10% calf serum. M600B immortalized human mammary epithelial cells (Stampfer, M.R., 1985, J. Tissue Culture Methods 9:107-115) were, obtained from Dr. Martha Stampfer and were grown in supplemented HCDB 170 medium (Hammond, et al. (1984) Proc. Natl. Acad. Sci U.S.A. 81:5435-5439), as described previously (Stampfer, et al. (1985) Proc. Natl. Acad. Sci U.S.A. 82:2394-2398; Eldridge, et al. (1989) Cancer Res. 49:4326-4331).
# (§4) All cells were maintained in 100-mm dishes at 37° C. in a humidified 5% CO2 atmosphere. Viable cells were distinguished from nonviable cells by counting azure II/methylene blue-stained colonies 10 days after the cells were plated at a density of 100 cells per dish. Trypan blue exclusion was measured by incubating cells for 1 min with one drop of trypan blue per 10 ml of cells. Viable (colorless) and nonviable (blue) cells were then counted on a hemocytometer.
# as §1
# M600B cells = assay: M600B cell growth inhibition (FIG. 4); assay type: cell-based; settings: M600B (human) cells
# Method: as §3, §4, §1
# [9] = 10% limonene diet or 2.5% POH diet
# [10] = 6 weeks, second comparison, listed as PAME
smiles,measurement,setting,value
"C=C(C)C1CC=C(C=O)CC1 (stereo not drawn) [Perillylaldehyde, reference compound]","Rank order, inhibition of HT-29 tumor cell proliferation",HT29 cells,3
C=C(C)[C@H]1CC=C(C)CC1 [limonene],"isoprenylation of the 21-26-kDa bands, % of the control",21-26 kDa proteins [1]; 0.5 mM limonene,~ 50 % of the control
same,"intensity of the 66-, 46-, and 17-kDa bands",21-26 kDa proteins [1]; 0.5 mM or 5 mM limonene,not different from that of the control
same,"isoprenylation of the 21-26-kDa bands, % of the control",21-26 kDa proteins [1]; 5 mM limonene,~ 25 % of the control
same,"Rank order, inhibition of HT-29 tumor cell proliferation",HT29 cells,5
same,Primary carcinoma complete regression (tumors regressed / tumors),[2]; [9],19/28
same,Primary carcinoma regression (%),[2]; [9],68%
same,Secondary carcinoma regression (%),[2]; [9],63%
same,Secondary carcinoma regression (tumors regressed / tumors),[2]; [9],17/27
same,Secondary carcinomas/rat,[2]; [9],1.08
same,development of secondary carcinomas,[2]; after initial diet assignment,number of secondary carcinomas was higher in the limonene-fed mammals
same,Time to Regress (wks),"[2]; primary carcinoma, footnote: Kaplan-Meier estimate of time when 25% regressed",3.25 wks
same,mM DHPAME,[3],trace
same,metabolism at 4 hours,[3],equal amounts of perillic and dihydroperillic acid
same,parent in plasma at 24 hours,[3],no limonene was detectable in the plasma
same,time parent found in plasma,[3],up to 4 hours
same,Total,[3]; 30240 min,0.19 mM
same,mM DHPA,[3]; 30240 min,0.06 ± 0.01 mM
same,mM DHPAME,[3]; 30240 min,0.01 ± 0.00 mM
same,mM LIM/POH,[3]; 30240 min,0 mM
same,mM PA,[3]; 30240 min,0.10 ± 0.02 mM
same,mM PAME,[3]; 30240 min,0.02 ± 0.01 mM
same,Total,[3]; 50400 min,0.28 mM
same,mM DHPA,[3]; 50400 min,0.09 ± 0.02 mM
same,mM DHPAME,[3]; 50400 min,0.01 ± 0.00 mM
same,mM LIM/POH,[3]; 50400 min,0 mM
same,mM PA,[3]; 50400 min,0.14 ± 0.03 mM
same,mM PAME,[3]; 50400 min,0.04 ± 0.01 mM
same,Total,[3]; 100800 min,0.27 mM
same,mM DHPA,[3]; 100800 min,0.12 ± 0.01 mM
same,mM LIM/POH,[3]; 100800 min,0 mM
same,mM PA,[3]; 100800 min,0.13 ± 0.01 mM
same,mM PAME,[3]; 100800 min,0.02 ± 0.00 mM
same,concentration,"[3]; po, 1000 mg/kg, 4 h",90 ± 20 µM
same,time of highest metabolite concentrations,[4]; human,4 h
same,identity of abundant human metabolite H2,[4],"limonene-1,2-diol"
same,metabolite concentrations at 24 h (8 h in one subject),[4],lower than those at the 4 h time point
same,time of highest concentrations of limonene-derived material,[5],2 to 12 h
same,side-effects,[6],not without some side-effects
same,gradeable toxicity,[7],No gradeable toxicity was encountered
same,intensity of the 21-26 kDa bands,21-26 kDa proteins [8]; 5 mM limonene,marked decrease
same,concentration required for significant inhibition of protein isoprenylation,21-26 kDa proteins [8]; dose responsive,at least 1 mM
C=C(C)C1CC=C(C(=O)OC)CC1 (stereo not drawn) [perillic acid methyl ester],potency in cell proliferation tests versus perillyl alcohol,HT29 cells,"more potent in cell proliferation, tests than perillyl alcohol"
same,"Rank order, inhibition of HT-29 tumor cell proliferation",HT29 cells,1
same,IC50,"HT29 cells; Homo sapiens, HT-29, read-out: IC50 HT29 tumor cell proliferation",50 µM
same,time (of tumor size change),DMBA rat mammary tumor,6 wks and 5 wks and 4 wks and 3 wks and 2 wks
same,effectiveness of diet,rat mammary carcinoma,effective
same,no regression (tumors),"rat mammary carcinoma; 6 weeks, second comparison",10 of 19
same,no response,"rat mammary carcinoma; 6 weeks, second comparison",1
same,partial regression >1/2 original diameter (%),"rat mammary carcinoma; 6 weeks, second comparison",47%
same,partial regression >1/2 original diameter (tumors),"rat mammary carcinoma; 6 weeks, second comparison",9 of 19
same,small regression response,"rat mammary carcinoma; 6 weeks, second comparison",4 of 19
same,some growth of tumor,"rat mammary carcinoma; 6 weeks, second comparison",5 of 19
same,no regression (tumors),rat mammary carcinoma; [10],10/19
same,no response,rat mammary carcinoma; [10],1/19
same,partial regression >1/2 original diameter (tumors),rat mammary carcinoma; [10],9/19
same,small regression response,rat mammary carcinoma; [10],4/19
same,some growth of tumor,rat mammary carcinoma; [10],5/19
C=C(C)[C@@H]1CC=C(C(=O)O)CC1 [perillic acid],inhibition of isoprenylation in all cases examined,21-26 kDa proteins [1]; all cell types examined,inhibition of isoprenylation
same,"Rank order, inhibition of HT-29 tumor cell proliferation",HT29 cells,4
same,inhibition of cell growth,NIH3T3 cells,significantly inhibited cell growth in a dose-dependent manner
same,inhibition of cell growth,M600B cells,significantly inhibited cell growth in a dose-dependent manner
same,isoprenylation of 21-26 kDa proteins,21-26 kDa proteins [8]; 5 mM,inhibited significantly
